This note sets out measurements from patent US10501425B2, “Microbiocidal oxadiazole derivatives” (SYNGENTA PARTICIPATIONS AG, priority 2015, dated 2019).

In data set [1] the test system is Puccinia recondita f. Sp. Tritici. Nature of the data set: Puccinia recondita f. sp. tritici / wheat / leaf disc preventative (brown rust). The format is in vivo. The settings on record: foliar, 200 ppm in the applied formulation, wheat leaf segments cv. Kanzler, preventative (inoculated 1 day after application), compared to untreated, read-out: disease control. The gist of the method: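 Wheat leaf segments (cv. Kanzler) on water agar were sprayed with test compound (DMSO stock diluted in 0.025% Tween20/water), then spore-inoculated 1 day later. Incubation at 19° C., 75% rh, 12 h light/12 h dark; percent disease control versus untreated segments scored 7 to 9 days after application. Tested at 200 ppm.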

Data set [2] has as its system Glomerella lacenarium (Colletotrichum lagenarium). Nature of the data set: Glomerella lagenarium liquid culture / cucumber / preventative (anthracnose). The format is cell-based. As to conditions: Colletotrichum orbiculare; 20 ppm in the applied formulation; liquid culture (PDB), growth inhibition measured photometrically 3 to 4 days after application; compared to untreated; read-out: disease control. The essentials: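 Conidia from cryogenic storage were mixed into potato dextrose broth. This was added to compound diluted from DMSO into 0.025% Tween20, tested at 20 ppm. Plates were incubated in the dark at 24 °C and 96% relative humidity, and growth was read photometrically after 2–7 days as % activity versus untreated check.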

The test system of data set [3] is Puccinia recondita f. Sp. Tritici. In words: Puccinia recondita f. sp. tritici / wheat / leaf disc curative (brown rust). In kind it is in vivo. As to conditions: foliar, 24 h, 200 ppm in the applied formulation, wheat leaf segments cv. Kanzler, curative (applied 1 day after inoculation), compared to untreated, read-out: disease control. The gist of the method:
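Read-out is percent disease control relative to untreated segments, assessed 6 to 8 days after treatment once check disease is adequate. Kanzler wheat leaf segments on agar receive fungal spores, then test compound (DMSO stock diluted in 0.025% Tween20 or water) 1 day later, under 19° C and 75% relative humidity.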

A further data set has as its system Phakopsora pachyrhizi. Nature of the data set: Phakopsora pachyrhizi / soybean / leaf disc preventative (Asian soybean rust). The format is in vivo. As to conditions: foliar, 200 ppm in the applied formulation, soybean leaf disks, compared to untreated, read-out: disease control. The gist of the method: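 Read-out is percent disease control relative to untreated check discs, assessed once untreated discs show adequate disease, 12 to 14 days after application. Compounds, tested at 200 ppm in the applied formulation, are sprayed onto soybean leaf discs one day before inoculation with a spore suspension.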

Values joined by “and” are separate entries in the source; they are usually repeats but may differ in a detail not shown here. Equal values may be shown once. Bounds are passed on as bounds.

For the molecule `O=C(CO)NCc1ccc(-c2noc(C(F)(F)F)n2)cc1` [Compound 1.27, 2-hydroxy-N-[[4-[5-(trifluoromethyl)-1,2,4-oxadiazol-3-yl]phenyl]methyl]acetamide], the melting point (usually the temperature of the solid-liquid transition) was in the range of 107 to 112 °C. Further, the pest or weed control at 200 ppm in data set [1] is not below 80%. In data set [2], the inhibition of growth at 20 ppm was not below 80%. Besides, the pest or weed control at 200 ppm in data set [3] was not below 80%.
For `CC(C)(C)OC(=O)NCCc1ccc(-c2noc(C(F)(F)F)n2)cc1` [Compound 2.1, tert-butyl N-[2-[4-[5-(trifluoromethyl)-1,2,4-oxadiazol-3-yl]phenyl]ethyl]carbamate], the melting point was 81 to 83 °C and 81 to 83.1 °C. The pest or weed control at 200 ppm in data set [1] is not below 80%. Moreover, the inhibition of growth at 20 ppm in data set [2] was not below 80%. Besides, the pest or weed control at 200 ppm in data set [3] was not below 80%.
`CCC(=O)NCc1ccc(-c2noc(C(F)(F)F)n2)cc1C` [Compound 1.81, N-[[2-methyl-4-[5-(trifluoromethyl)-1,2,4-oxadiazol-3-yl]phenyl]methyl]propanamide]: the melting point lay within 140 to 143 °C. For the same molecule, the inhibition of growth at 20 ppm in data set [2] was not below 80%.
Molecule `CC(C)C(=O)NCc1ccc(-c2noc(C(F)(F)F)n2)nc1` [Compound 1.106, 2-methyl-N-[[6-[5-(trifluoromethyl)-1,2,4-oxadiazol-3-yl]-3-pyridyl]methyl]propanamide] registered a melting point of 151 to 153 °C. Further, the pest or weed control at 200 ppm in data set [1] is not below 80%. Besides, the pest or weed control at 200 ppm in data set [3] was not below 80%.
Molecule `CCC(=O)NCc1ccc(-c2noc(C(F)(F)F)n2)cc1C(F)(F)F` [Compound 1.31, N-[[2-(trifluoromethyl)-4-[5-(trifluoromethyl)-1,2,4-oxadiazol-3-yl]phenyl]methyl]propanamide] returned a melting point of 100 to 102 °C.
Turning to `CCCCOC(=O)NCc1ccc(-c2noc(C(F)(F)F)n2)cc1` [Compound 2.11, butyl N-[[4-[5-(trifluoromethyl)-1,2,4-oxadiazol-3-yl]phenyl]methyl]carbamate], the pest or weed control at 200 ppm (in data set [1]; in data set [3]; in the data set on Phakopsora pachyrhizi) was not below 80% throughout. For the same molecule, the inhibition of growth at 20 ppm in data set [2] is not below 80%.
`CCC(C)C(=O)NCc1ccc(-c2noc(C(F)(F)F)n2)cc1F` (stereo not drawn) [Compound 1.41, N-[[2-fluoro-4-[5-(trifluoromethyl)-1,2,4-oxadiazol-3-yl)phenyl]methyl]-2-methyl-butanamide]: the pest or weed control at 200 ppm (in data set [1]; in data set [3]; in the data set with Phakopsora pachyrhizi) was not below 80% in each case. Further, in data set [2], the inhibition of growth at 20 ppm was not below 80%.
Regarding `CCC(C)C(=O)NCCc1ccc(-c2noc(C(F)(F)F)n2)cc1` (stereo not drawn) [Compound 1.87, 2-methyl-N-[2-[4-[5-(trifluoromethyl)-1,2,4-oxadiazol-3-yl]phenyl]ethyl]butanamide], the pest or weed control at 200 ppm (in data set [1]; in data set [3]; in the data set with Phakopsora pachyrhizi) was not below 80% each time. The inhibition of growth at 20 ppm in data set [2] is not below 80%.
For the molecule `CCONC(=O)NCc1ccc(-c2noc(C(F)(F)F)n2)cc1` [Compound 3.14, 1-ethoxy-3-[[4-[5-(trifluoromethyl)-1,2,4-oxadiazol-3-yl]phenyl]methyl]urea], the pest or weed control at 200 ppm (in data set [1]; in data set [3]; in the data set with Phakopsora pachyrhizi) was not below 80% each time. In data set [2], the inhibition of growth at 20 ppm is not below 80%.
As to `CC(C)(C)CC(=O)NCc1ccc(-c2noc(C(F)(F)F)n2)cc1` [Compound 1.15, 3,3-dimethyl-N-[[4-[5-(trifluoromethyl)-1,2,4-oxadiazol-3-yl]phenyl]methyl]butanamide], the pest or weed control at 200 ppm (in data set [1]; in data set [3]; with Phakopsora pachyrhizi) was not below 80% in each case. In addition, the inhibition of growth at 20 ppm in data set [2] is not below 80%.
As for `COCC(=O)NCc1ccc(-c2noc(C(F)(F)F)n2)cc1F` [Compound 1.38, N-[[2-fluoro-4-[5-(trifluoromethyl)-1,2,4-oxadiazol-3-yl]phenyl]methyl]-2-methoxy-acetamide], the pest or weed control at 200 ppm (in data set [1]; in data set [3]; in the data set with Phakopsora pachyrhizi) was not below 80% each time. The inhibition of growth at 20 ppm in data set [2] is not below 80%.
On to `CCC(C)(CC)C(=O)NCc1ccc(-c2noc(C(F)(F)F)n2)cc1` [Compound 1.20, 2-ethyl-2-methyl-N-[[4-[5-(trifluoromethyl)-1,2,4-oxadiazol-3-yl]phenyl]methyl]butanamide], for which the pest or weed control at 200 ppm (in data set [1]; in data set [3]; with Phakopsora pachyrhizi) was not below 80% each time. Besides, the inhibition of growth at 20 ppm in data set [2] is not below 80%.
Regarding `CCN(CC)C(=O)NCc1ccc(-c2noc(C(F)(F)F)n2)cc1` [Compound 3.12, 1,1-diethyl-3-[[4-[5-(trifluoromethyl)-1,2,4-oxadiazol-3-yl]phenyl]methyl]urea], the pest or weed control at 200 ppm (in data set [1]; in data set [3]; with Phakopsora pachyrhizi) was not below 80% each time. Also, the inhibition of growth at 20 ppm in data set [2] was not below 80%.
For `C=CCCC(=O)NCc1ccc(-c2noc(C(F)(F)F)n2)cc1` [Compound 1.7, N-[[4-[5-(trifluoromethyl)-1,2,4-oxadiazol-3-yl]phenyl]methyl]pent-4-enamide], the pest or weed control at 200 ppm (in data set [1]; in data set [3]; in the data set on Phakopsora pachyrhizi) was not below 80% in each case. Also, in data set [2], the inhibition of growth at 20 ppm was not below 80%.
For `CC(=O)NCc1ccc(-c2noc(C(F)(F)F)n2)c(F)c1` [Compound 1.47, N-[[3-fluoro-4-[5-(trifluoromethyl)-1,2,4-oxadiazol-3-yl]phenyl]methyl]acetamide], the pest or weed control at 200 ppm (in data set [1]; in data set [3]; with Phakopsora pachyrhizi) was not below 80% each time. Moreover, in data set [2], the inhibition of growth at 20 ppm is not below 80%.
As to `CCNC(=O)NCc1ccc(-c2noc(C(F)(F)F)n2)cc1` [Compound 3.10, 1-ethyl-3-[[4-[5-(trifluoromethyl)-1,2,4-oxadiazol-3-yl]phenyl]methyl]urea], the pest or weed control at 200 ppm (in data set [1]; in data set [3]; with Phakopsora pachyrhizi) was not below 80% each time. The inhibition of growth at 20 ppm in data set [2] was not below 80%.
In the case of `O=C(NCc1ccc(-c2noc(C(F)(F)F)n2)cc1)OCCCl` [Compound 2.17, 2-chloroethyl N-[[4-[5-(trifluoromethyl)-1,2,4-oxadiazol-3-yl]phenyl]methyl]carbamate], the pest or weed control at 200 ppm (in data set [1]; in data set [3]; in the data set on Phakopsora pachyrhizi) was not below 80% in each case. In addition, the inhibition of growth at 20 ppm in data set [2] is not below 80%.
With `CC(C)NC(=O)NCc1ccc(-c2noc(C(F)(F)F)n2)cc1` [Compound 3.9, 1-isopropyl-3-[[4-[5-(trifluoromethyl)-1,2,4-oxadiazol-3-yl]phenyl]methyl]urea], the pest or weed control at 200 ppm (in data set [1]; in data set [3]; in the data set on Phakopsora pachyrhizi) was not below 80% throughout. For the same molecule, the inhibition of growth at 20 ppm in data set [2] is not below 80%.
`CCC(=O)NCc1ccc(-c2noc(C(F)(F)F)n2)cc1OC` [Compound 1.30, N-[[2-methoxy-4-[5-(trifluoromethyl)-1,2,4-oxadiazol-3-yl]phenyl]methyl]propanamide] gave a melting point of 163 to 165 °C.
As for `CC(C)C(=O)NCCc1ccc(-c2noc(C(F)(F)F)n2)cc1` [Compound 1.83, 2-methyl-N-[2-[4-[5-(trifluoromethyl)-1,2,4-oxadiazol-3-yl]phenyl]ethyl]propanamide], the pest or weed control at 200 ppm (in data set [1]; in data set [3]; with Phakopsora pachyrhizi) was not below 80% each time. In data set [2], the inhibition of growth at 20 ppm is not below 80%.
Take `C=CCOC(=O)NCc1ccc(-c2noc(C(F)(F)F)n2)cc1` [Compound 2.10, allyl N-[[4-[5-(trifluoromethyl)-1,2,4-oxadiazol-3-yl]phenyl]methyl]carbamate]: the pest or weed control at 200 ppm (in data set [1]; in data set [3]; with Phakopsora pachyrhizi) was not below 80% throughout. Further, in data set [2], the inhibition of growth at 20 ppm is not below 80%.
`CCOCCOC(=O)NCc1ccc(-c2noc(C(F)(F)F)n2)cc1C(F)(F)F` [Compound 2.2, 2-ethoxyethyl N-[[2-(trifluoromethyl)-4-[5-(trifluoromethyl)-1,2,4-oxadiazol-3-yl]phenyl]methyl]carbamate] came in with a melting point of 60 to 66 °C. The inhibition of growth at 20 ppm in data set [2] was not below 80%.
As for `CCC(C)C(=O)NCc1ccc(-c2noc(C(F)(F)F)n2)c(F)c1` (stereo not drawn) [Compound 1.39, N-[[3-fluoro-4-[5-(trifluoromethyl)-1,2,4-oxadiazol-3-yl]phenyl]methyl]-2-methyl-butanamide], the pest or weed control at 200 ppm (in data set [1]; in data set [3]; with Phakopsora pachyrhizi) was not below 80% throughout. Also, the inhibition of growth at 20 ppm in data set [2] is not below 80%.
